Source: PMC8903829 (eLife, 2022)
Like-named read-outs stand apart in the source and are kept apart here.

How the values were obtained:
Scn8a^N1768D/+ mice = assay: Modified 6 Hz psychomotor seizure assay; format: in vivo, mouse; conditions: for EC50: Mus musculus, read-out: brain EC50
Experimental: Phenytoin was formulated in physiologic saline and was administered intraperitoneally (i.p.) using a 25-gauge needle at a dose volume of 10 mL/kg. All compounds were administered 2 hr prior to electrical seizure induction for all seizure models employed in this study.
Scn8a^N1768D/+heterozygous mice were tested at 5 weeks of age (p35). The modified 6 Hz seizure assay in Scn8a^N1768D/+heterozygous mice was adapted from the traditional 6 Hz assay psychomotor seizure assay to provide a measure of in vivo on target (NaV1.6 mediated) efficacy ([Barton et al., 2001]). The modified assay used a low frequency (6 Hz) but long-duration stimulation (3 s) to induce seizures. […] An electroshock (6 Hz, 12 mA) was delivered for 3 s (at 0.3-ms pulse interval) by corneal electrodes (Electro Convulsive Therapy Unit 57,800 from Ugo Basile). Immediately prior to the electroshock, the animals’ eyes were anesthetized with a drop of Alcaine (0.5% proparacaine hydrochloride).
An animal was considered protected in the assay upon prevention of GTC with hindlimb extension and was then scored ‘0’. An animal displaying GTC with hindlimb extension was considered not protected and is then scored ‘1’. The experimenter scoring the seizure behavior was blinded to the treatment.

[1] = Bioanalytical assessment of plasma and brain concentrations after 6 Hz assay; format: in vivo, mouse; conditions: mouse, SCN8A mouse 6HZ
Experimental: Approximately 0.5 mL of blood was collected from each mouse at the end of the assay via cardiac puncture under deep anesthesia. The blood samples were collected in a syringe and transferred to tubes containing EDTA. Blood was stored at 4 °C until centrifuged within 30 min of collection. Plasma was harvested and placed on dry ice and stored in a freezer set to maintain a temperature of –70°C to –80°C until analysis. Brains were harvested immediately after blood collection and placed on dry ice prior to storage in a freezer set to maintain a temperature of –70°C to –80°C until analysis.
Extraction of plasma samples was carried out by protein precipitation using acetonitrile. Plasma samples (50 µL) were mixed with 50 µL of internal standard (IS) solution in water followed by addition of 10 µL of concentrated ortho-phosphoric acid and 200 µL of acetonitrile. Samples were vortexed for 30 seconds, centrifuged at 13,000 rpm for 20 min, decanted in to a 96-well plate, and further centrifuged at 4000 rpm for 20 min. The samples were analyzed by UHPLC-ESI-MS/MS as described below.
Prior to extraction, pre-weighed whole brains were homogenized in 1:1 acetonitrile/water (v/v) (4 mL per mouse brain) using an IKA T18 ULTRA-TURRAX Homogenizer at the setting of 4 for approximately 2 min. The homogenate was centrifuged at 13,000 rpm for 20 min and 50 µL of the supernatant were treated exactly as described above for plasma samples. […]
Samples were analyzed by UHPLC-ESI MS/MS using a TQ-5500 Sciex triple quadrupole mass spectrometer equipped with a Shimadzu Nexera UHPLC pump and auto-sampler system using an ACE C18 PFP, 2.50 × 50 mm, 1.7 µm particle size column and gradient elution consisting of solvent A (0.1% formic acid in water) and solvent B (0.1% formic acid in acetonitrile) starting at 20% B from 0 min to 0.4 min and then increased to 100% B from 0.4 min to 0.6 min. At 2.0 min, the mobile phase composition was switched back to […] for 1 min. The flow rate used throughout the experiment was […]. […] The UHPLC-ESI MS/MS system was controlled by Analyst 1.6.
Sample concentrations were determined using a linear calibration function, weighted 1 /X, generated by the regression of analyte to IS peak area ratios in the standard samples to their respective concentrations. Acceptance criteria for the analytical run required that the back calculated values of the standards and the QC samples fell within ±20% of their nominal values, except for the lowest standard or lower limit of quantitation (LLOQ), for which the acceptance criterion was ±25%. At least 6 out of 12 standard points had to show back-calculated values within ±20% of their nominal concentrations for the calibration to be accepted. At least three QC samples, one at each level, had to show back-calculated values within ±20% of their nominal concentrations for the whole sample batch to be valid.

In the case of NC(=O)N1c2ccccc2C=Cc2ccccc21 [carbamazepine, Carbamazepine, reference compound], the EC50 (Scn8a^N1768D/+ mice; Scn8a^N1768D/+ 6 Hz model, 2 hr post dose (oral; phenytoin i.p.)) is reported as 9.4 µM, the “SCN8A mouse 6HZ Fraction of animals seizing” value (“SCN8A mouse 6HZ Fraction” for short) (Scn8a^N1768D/+ mice; Study15064, 3 mg/kg) is reported as 0.5 and the “SCN8A mouse 6HZ Fraction” value (Scn8a^N1768D/+ mice; Study15064, 10 mg/kg) is reported as 0.75. The “SCN8A mouse 6HZ Fraction” value (Scn8a^N1768D/+ mice; Study16152, 3 mg/kg) was 0.75, the “SCN8A mouse 6HZ Fraction” value (Scn8a^N1768D/+ mice; Study16152, 10 mg/kg) was 0.667 and the “SCN8A mouse 6HZ Fraction” value (Scn8a^N1768D/+ mice; Study16152, 30 mg/kg) was 0. The “SCN8A mouse 6HZ Fraction” value (Scn8a^N1768D/+ mice; Study16162, 3 mg/kg) was 0.8, the “SCN8A mouse 6HZ Fraction” value (Scn8a^N1768D/+ mice; Study16162, 10 mg/kg) was 0.4 and the “SCN8A mouse 6HZ Fraction” value (Scn8a^N1768D/+ mice; Study16162, 100 mg/kg) was 0. It also gave a concentration at 2 h ([1]; Scn8a N1768D/+, brain, oral, 3 mg/kg, Study15064, 3 mg/kg, read-out: Mean [Brain]) of 0.943 µM, a concentration at 2 h ([1]; Scn8a N1768D/+, brain, oral, 3 mg/kg, Study16152, 3 mg/kg, read-out: Mean [Brain]) of 2.7 µM and a concentration at 2 h ([1]; Scn8a N1768D/+, brain, oral, 3 mg/kg, Study16162, 3 mg/kg, read-out: Mean [Brain]) of 4.89 µM. It also gave a concentration at 2 h ([1]; Scn8a N1768D/+, brain, oral, 10 mg/kg, Study15064, 10 mg/kg, read-out: Mean [Brain]) of 2.24 µM, a concentration at 2 h ([1]; Scn8a N1768D/+, brain, oral, 10 mg/kg, Study16152, 10 mg/kg, read-out: Mean [Brain]) of 11.4 µM and a concentration at 2 h ([1]; Scn8a N1768D/+, brain, oral, 10 mg/kg, Study16162, 10 mg/kg, read-out: Mean [Brain]) of 15.7 µM. The concentration at 2 h ([1]; Scn8a N1768D/+, brain, oral, 30 mg/kg, Study16152, 30 mg/kg, read-out: Mean [Brain]) was 40.7 µM, the concentration at 2 h ([1]; Scn8a N1768D/+, brain, oral, 100 mg/kg, Study16162, 100 mg/kg, read-out: Mean [Brain]) was 130 µM and the concentration at 2 h ([1]; Scn8a N1768D/+, plasma, oral, 10 mg/kg, Study16162, 10 mg/kg, read-out: Mean [Palsma]) was 20.7 µM. The concentration at 2 h ([1]; Scn8a N1768D/+, plasma, oral, 100 mg/kg, Study16162, 100 mg/kg, read-out: Mean [Palsma]) was 154 µM, the concentration at 2 h ([1]; Scn8a^N1768D/+, plasma, oral, 3 mg/kg, Study15064, 3 mg/kg, read-out: Mean [Palsma]) was 1.14 µM and the concentration at 2 h ([1]; Scn8a^N1768D/+, plasma, oral, 3 mg/kg, Study16152, 3 mg/kg, read-out: Mean [Palsma]) was 4.75 µM. For the same compound, the concentration at 2 h ([1]; Scn8a^N1768D/+, plasma, oral, 3 mg/kg, Study16162, 3 mg/kg, read-out: Mean [Palsma]) was 7.46 µM, the concentration at 2 h ([1]; Scn8a^N1768D/+, plasma, oral, 10 mg/kg, Study15064, 10 mg/kg, read-out: Mean [Palsma]) was 5.96 µM and the concentration at 2 h ([1]; Scn8a^N1768D/+, plasma, oral, 10 mg/kg, Study16152, 10 mg/kg, read-out: Mean [Palsma]) was 15.4 µM. For the same compound, the concentration at 2 h ([1]; Scn8a^N1768D/+, plasma, oral, 30 mg/kg, Study16152, 30 mg/kg, read-out: Mean [Palsma]) was 48.7 µM.
With COC[C@@H](NC(C)=O)C(=O)NCc1ccccc1 [lacosamide, Lacosamide, reference compound] the EC50 (Scn8a^N1768D/+ mice; 2 h) was 3.3 µM, the “SCN8A mouse 6HZ Fraction” value (Scn8a^N1768D/+ mice; Study18007, 3 mg/kg) was 0.429 and the “SCN8A mouse 6HZ Fraction” value (Scn8a^N1768D/+ mice; Study18007, 10 mg/kg) was 0.286. The “SCN8A mouse 6HZ Fraction” value (Scn8a^N1768D/+ mice; Study18007, 30 mg/kg) was 0.286, the “SCN8A mouse 6HZ Fraction” value (Scn8a^N1768D/+ mice; Study18011, 1 mg/kg) was 0.858 and the “SCN8A mouse 6HZ Fraction” value (Scn8a^N1768D/+ mice; Study18011, 30 mg/kg) was 0.5. The “SCN8A mouse 6HZ Fraction” value (Scn8a^N1768D/+ mice; Study18011, 56 mg/kg) was 0.286, the “SCN8A mouse 6HZ Fraction” value (Scn8a^N1768D/+ mice; Study18028, 10 mg/kg) was 0.375 and the “SCN8A mouse 6HZ Fraction” value (Scn8a^N1768D/+ mice; Study18042, 10 mg/kg) was 0.5. It also gave a concentration at 2 h ([1]; Scn8a^N1768D/+, in vivo, 1 mg/kg, Study18011, 1 mg/kg, read-out: Mean [Brain]) of 0.728 µM, a concentration at 2 h ([1]; Scn8a^N1768D/+, in vivo, 1 mg/kg, Study18011, 1 mg/kg, read-out: Mean [Palsma]) of 1.12 µM and a concentration at 2 h ([1]; Scn8a^N1768D/+, in vivo, 3 mg/kg, Study18007, 3 mg/kg, read-out: Mean [Brain]) of 2.84 µM. It also gave a concentration at 2 h ([1]; Scn8a^N1768D/+, in vivo, 3 mg/kg, Study18007, 3 mg/kg, read-out: Mean [Palsma]) of 3.48 µM, a concentration at 2 h ([1]; Scn8a^N1768D/+, in vivo, 10 mg/kg, Study18007, 10 mg/kg, read-out: Mean [Brain]) of 9.32 µM and a concentration at 2 h ([1]; Scn8a^N1768D/+, in vivo, 10 mg/kg, Study18007, 10 mg/kg, read-out: Mean [Palsma]) of 10.7 µM. It also gave a concentration at 2 h ([1]; Scn8a^N1768D/+, in vivo, 10 mg/kg, Study18028, 10 mg/kg, read-out: Mean [Brain]) of 7.58 µM, a concentration at 2 h ([1]; Scn8a^N1768D/+, in vivo, 10 mg/kg, Study18028, 10 mg/kg, read-out: Mean [Palsma]) of 11.8 µM and a concentration at 2 h ([1]; Scn8a^N1768D/+, in vivo, 10 mg/kg, Study18042, 10 mg/kg, read-out: Mean [Brain]) of 3.27 µM. The concentration at 2 h ([1]; Scn8a^N1768D/+, in vivo, 10 mg/kg, Study18042, 10 mg/kg, read-out: Mean [Palsma]) was 14.4 µM, the concentration at 2 h ([1]; Scn8a^N1768D/+, in vivo, 30 mg/kg, Study18007, 30 mg/kg, read-out: Mean [Brain]) was 21 µM and the concentration at 2 h ([1]; Scn8a^N1768D/+, in vivo, 30 mg/kg, Study18007, 30 mg/kg, read-out: Mean [Palsma]) was 25.2 µM. It also gave a concentration at 2 h ([1]; Scn8a^N1768D/+, in vivo, 30 mg/kg, Study18011, 30 mg/kg, read-out: Mean [Brain]) of 19.2 µM, a concentration at 2 h ([1]; Scn8a^N1768D/+, in vivo, 30 mg/kg, Study18011, 30 mg/kg, read-out: Mean [Palsma]) of 29.6 µM and a concentration at 2 h ([1]; Scn8a^N1768D/+, in vivo, 56 mg/kg, Study18011, 56 mg/kg, read-out: Mean [Brain]) of 28.3 µM. The concentration at 2 h ([1]; Scn8a^N1768D/+, in vivo, 56 mg/kg, Study18011, 56 mg/kg, read-out: Mean [Palsma]) was 44.7 µM.
